Patent US5547956A, “Pharmaceutical composition and the method for treating drug addicts' withdrawal syndromes and detoxifying addicts by the same” (priority 1991, dated 1996)
Structures can show the parent of a compound that is named as a salt. Where two headings read alike, the source gives them in different places.

Experiments:
[1] = test system: morphine-dependent monkeys
[2] = test system: mice
Method: In another case, male mice weighing 18-22 g were divided into four groups (10 for every group). Two groups of mice were injected subcutaneously with lappaconitine hydrobromide 7 times within 2 days. The initial dosage was 3.5 mg/kg. Then, additional doses of 0.5 mg/kg and 1.0 mg/kg were given for every injection in each group, respectively. […] The initial dosage was 2.5 mg/kg and an escalating dose schedule of 5, 10, 20, 30, 40, 50 mg/kg was applied. The fourth group of mice was used as control group and was given physiological saline. Two hours after the last injection, all the mice of the above four groups were injected with 50 mg/kg nalorphine through the intraperitoneal cavity. The number of jumps within 10 minutes in each group of mice were recorded.

[3] = test system: Morphine-dependent rats; type: in vivo, Wister rat
Method: Wister male rats weighing 200-250 g were divided into 3 groups (10 for each group).
II Physiological saline 2 ml/kg. sc
III Lappaconitine hydrobromide 8 mg/kg. sc

[4] = test system: mice; remark: listed apart in the source
Method: Male mice weighing 18~22 g were used for the test and divided into 3 groups (10 for every group). […] The second group of mice was given a subcutaneous injection of lappaconitine hydrobromide (8 mg/kg) for 20 days. The third group was a control group and was given physiological saline. 6 hours after being given the last dose, all the mice were given an intraperitoneal injection of 10 mg/kg allyl dromaran, and then were placed in a cone cylinder cage (diameter=30 cm, height=35 cm). The number of jumps for each mouse in 60 minutes was recorded.

[5] = test system: Morphine-dependent Mice; type: in vivo, mouse; details: for Jumping Mice/Survived Mice, Day 1 after stopping drug / Jumping Mice/Survived Mice, Day 4 after stopping administration / Jumping Mice/Survived Mice, Day 5 of treatment: nalorphine 50 mg/kg
Method: In the first 4 days, administration was given once per 6 hours, four times a day. From day 5 through day 7, administration was given once every 8 hours, three times a day. On day 5 and day 8 of treatment, respectively, subcutaneous injections of nalorphine (50 mg/kg) were made to […].

[6] = test system: mice dependent on cocaine
Method: In the same way as described above, subcutaneous injection of cocaine (10 mg/kg) were given to the mice twice a day, and the injection was continued for 7 days.

[7] = Acute Toxicity Test, mice; type: in vivo, mouse; details: for LD50: mouse, in vivo, read-out: LD50 (95 % confidence limit)
[8] = test system: Macaca mulatta; experiment: Monkey addiction test (lappaconitine); type: in vivo
Method: Three of 6 Macaca mulatta weighing 2.75~4.75 kg were subcutaneously injected with lappaconitine twice a day. The initial dosage is 0.1 mg/kg, and the dose was successively escalated to the maximum tolerance dosage, 2 mg/kg within 50 days. Then, the tolerance dosage was maintained to the 53rd day, 67th day and 92nd day, respectively. […] On day 63 and day 92, the injections of lappaconitine to the monkeys was stopped. […] On day 29, 53, 59, 67 and 90, injections to the monkeys were discontinued and after 18 hours, subcutaneous injection of nalorphine (4 or 8 mg/kg) were given.

[9] = Subacute toxicity Test, monkeys; type: in vivo, Macca Mulatta
Method: Three Macca Mulatta weighing 2.75~4.75 kg were injected with lappaconitine subcutaneously twice a day. Initiated with 0.1 mg/kg, the dosage was increased successively to the highest tolerated dosage, 2 mg/kg within 50 days, and the last dosage was maintained to day 53, day 67 and day 92, respectively. The accumulated injective dosage was 196, 400 and 635 mg, respectively.

[10] = Acute Toxicity Test, rats; type: in vivo, rat
[11] = Acute Toxicity Test, monkeys; type: in vivo, Macca Mulatta
[12] = type: in vivo, Wister rat; details: 5 or 10 mg/kg ip a day, 30 days
Method: Ten Wister rats weighing 200~250 g were divided into 2 groups (5 for each group). Each group was given intraperitoneal injection of 5 mg/kg or 10 mg/kg of lappaconitine a day, respectively. The injection was continued for 30 days. 5 wister rats of a control group were given subcutaneous injections of saline (2 ml/kg). […].

[13] = type: in vivo, Wister rat; details: 8 to 14 mg/kg ip escalated, until day 28
Method: Another ten Wister rats were medicated with successively escalated doses, in other words, the rats were first injected with lappaconitine (8 mg/kg) intraperitoneally. After one week with 10 mg/kg; after 2 weeks with 12 mg/kg; after 16 days with 14 mg/kg; and the last dose was maintained until day 28.

[14] = oral methadone vs injected morphine; cited from earlier work
[15] = 0.45 mg/g sc (so in the source)
[16] = 0.1 to 2 mg/kg sc twice a day, to day 53, 67 and 92
[17] = nalorphine 50 mg/kg, 2 days: lappaconitine initial 3.5 mg/kg, total 45.5 mg/kg, 5 mice tested

## CN1CC[C@]23c4c5ccc(O)c4O[C@H]2[C@@H](O)C=C[C@H]3[C@H]1C5.Cl [Morphine, morphine hydrochloride, reference compound]
[1]; Table 5, per monkey (No. 7, 8) and day
  Withdrawal Syndrome, Nalorphine 0.5 mg/kg sc: +
[1]; sc twice a day until the 30th day
  dependence in monkeys: showed dependence on morphine
[1]; sc, lappaconitine 2 mg/kg, 18 hours after stopping morphine
  effect on withdrawal symptoms of morphine-dependent monkeys: obviously reduced or disappeared
[2]; nalorphine 50 mg/kg, 2 days: morphine initial 2.5 mg/kg (total 157.5), lappaconitine initial 3.5 mg/kg (total 35)
  jumping times of each mouse: 9
[3]; 24 hours after discontinuing morphine (25 mg/kg sc twice a day, 12 weeks)
  average weight loss per rat: 25 g
[3]; morphine hydrochloride 25 mg/kg sc or lappaconitine hydrobromide 8 mg/kg sc
  behaviour of morphine-withdrawn rats after injection: turned to being excited from being suppressive, moved increasingly, frequently took food and water
[3]; within 8 hours, morphine hydrochloride 25 mg/kg sc or lappaconitine hydrobromide 8 mg/kg sc
  weight change of morphine-withdrawn rats after injection: the weight increased to the level shown very quickly before stopping injection of morphine
[4]; allyl-dromaran 10 mg/kg ip, 20 days: morphine 80 mg/kg (total 1600), lappaconitine 8.0 mg/kg (total 160)
  jumping times of each mouse: 34

## CCN1CC2(OC(=O)c3ccccc3NC(C)=O)CCC(OC)C34C1C(CC23)C1(O)CC(OC)C2CC4C1(O)C2OC (stereo not shown) [Lappaconitine hydrobromide, lappaconitine hydrobromide]
[2]; mouse jumping test
  drug dependence (conclusion of Table 4): does not cause drug dependence
[5]; [15]
  Jumping Mice/Survived Mice, Day 1 after stopping drug: 0/10
  Jumping Mice/Survived Mice, Day 4 after stopping administration: 0/10
  Jumping Mice/Survived Mice, Day 5 of treatment: 1/10
[5]; footnote *^3, 0.45 mg/g (so in the source) sc group, Day 5
  number of jumps of the one jumping mouse: five
[4]; mouse, in vivo
  behaviour after administration: looked quiet and immobile and showed no pilo-erection reaction
  jumping reaction after injection of allyl dromaran: no jumping reaction

## COC(=O)[C@H]1[C@@H](OC(=O)c2ccccc2)C[C@@H]2CC[C@H]1N2C [cocaine, reference compound]
[6]; 10 mg/kg sc twice a day, 7 days
  abnormal signs during injection of cocaine: anorexia, pilo-erection, and frequent walking with holding tail, and the like

## CCN1CC2(O)CCC(OC)C34C1C(CC23)C1(O)CC(OC)C2CC4C1(O)C2OC (stereo not shown) [Lappaconine hydrobromide, lappaconine hydrobromide]
[5]; 5 mg/g (so in the source) sc
  Jumping Mice/Survived Mice, Day 1 after stopping drug: 0/10
  Jumping Mice/Survived Mice, Day 4 after stopping administration: 0/10
  Jumping Mice/Survived Mice, Day 5 of treatment: 0/10

## C=CCN1CC[C@]23c4c5ccc(O)c4O[C@H]2[C@@H](O)C=C[C@H]3[C@H]1C5 [nalorphine]
[1]; in vivo, sc
  effect of nalorphine on withdrawal symptoms: the above symptoms would be more obvious

## CCN1CC2(OC(=O)c3ccccc3NC(C)=O)CCC(OC)C34C1C(CC23)C1(O)CC(OC)C2CC4C1(O)C2OC (stereo not shown) [Lappaconitine]
[1]; in vivo
  effect on withdrawal symptoms of morphine-dependent monkeys: could not relieve or weaken the above withdrawal symptoms
[1]; in vivo, sc, 2 mg/kg
  substitute for morphine: does not act as a substitute for morphine
[7]; lethal dosage
  toxicity reactions at lethal dosage: paroxysmal convulsion, respiration suppression until suffocation, and death
[7]; intravenous injection
  LD50: 8.4 mg/kg
[7]; po, intra gasteria
  LD50: 32.4 mg/kg
[7]; sc, subcutaneous injection
  LD50: 11.7 mg/kg
[7]; toxicity dosages
  toxicity reactions: paroxysmal restlessness, and foreleg tic
[8]; 18 hours after discontinuing on day 29, 53, 59, 67 and 90, nalorphine 4 or 8 mg/kg sc
  withdrawal symptoms after nalorphine: No withdrawal symptoms were observed
[8]; 24 hours following stop on day 63 and day 92
  behavior and appetite after stopping injections: no different behavior and appetite from that before stopping injection
[8]; monkeys
  dependence after long term use: does not cause dependence after long term use
[9]; [16]
  Histological and pathological examinations: stimulating reaction, except a little edema and hydrodenaturation in the liver and increasing cerebral colloid cells
  electrocardiographic examination: No obvious change
  toxic reaction during administration: No toxic reaction
[9]; rhesus monkey, in vivo, monkey, sc twice a day, escalated from 0.1 mg/kg within 50 days, read-out: maximum tolerance dosage / highest tolerated dosage
  MTD: 2 mg/kg
[10]; intraperitoneal, toxicity dosage
  toxicity reactions: looked suppressive and immobile lying on stomach in cage, obvious suppression of respiration and showed convulsions before death
[10]; rat, in vivo, ip, intraperitoneal injection, read-out: LD50 (95 % confidence limit)
  LD50: 16.5 mg/kg
[2]; initial 3.5 mg/kg, total 45.5 mg/kg in 2 days, of 10 mice
  mice died of accumulated toxicity during the administration: five
[2]; mouse, in vivo
  jumping times of each mouse: 0
  number of jumping mice: 0
[2]; [17]
  jumping times of each mouse: 0
  number of jumping mice: 0
[11]; 2 mg/kg sc, two monkeys
  toxic reaction and electrocardiography: No toxic reaction and no effect on electrocardiography were observed
[11]; 3 mg/kg sc
  electrocardiography examination: T wave had elevation, T wave and P wave fused, and R wave became smaller and notching
[11]; 3 mg/kg sc, 30 minutes after injection
  toxic reactions: restlessness, slobbering, increased swallowing, drooping eyelids, and rigidity of leg muscles
[11]; 3 mg/kg sc, from 45 minutes
  convulsion and death of one monkey: The convulsion still continued until death after 1 hr
[11]; 3 mg/kg sc, no convulsion
  duration of toxic reaction in the other monkey: 2 h
[11]; 3 mg/kg sc, surviving monkey
  electrocardiography examination next day: normal
[3]; rat, in vivo
  behaviour of morphine-withdrawn rats after injection: still looked suppressive
  weight change of morphine-withdrawn rats after injection: no weight increase was observed
[3]; rat, in vivo, sc, 8 mg/kg
  substitution for morphine: did not act as a substitution for morphine
[12]
  electrocardiography examination: No obvious change
  hepatic and renal function and histological and pathological examination of viscera: No change was observed
  weight increase compared to control: inhibited weight increase at different levels
[4]; mouse, in vivo
  jumping times of each mouse: 0.2
  number of jumping mice: 1
[6]; mouse, in vivo
  recovery of cocaine-treated mice: recovered to normal
[13]
  weight increase compared to control: a little suppressed

## CCC(=O)C(CC(C)N(C)C)(c1ccccc1)c1ccccc1 (stereo not shown) [methadone]
[14]
  dependence potential of 100 mg of oral methadone: equivalent to that of 10 mg of injected morphine

## CCN1CC2(OC(=O)c3ccccc3N)CCC(OC)C34C1C(CC23)C1(O)CC(OC)C2CC4C1(O)C2OC (stereo not shown) [N-deacetyllappaconitine hydrobromide, N-deacetyl-lappaconitine hydrobromide]
[5]; 5 mg/g (so in the source) sc
  Jumping Mice/Survived Mice, Day 1 after stopping drug: 0/10
  Jumping Mice/Survived Mice, Day 4 after stopping administration: 0/10
  Jumping Mice/Survived Mice, Day 5 of treatment: 0/10
